One assay deals with T1, PPAR-γ (Homo sapiens, UniProt P37231).
T1 construct: expressed in transfected cells; host or cells: CV-1 (African green monkey kidney)
T1 sequence (P37231 204-505): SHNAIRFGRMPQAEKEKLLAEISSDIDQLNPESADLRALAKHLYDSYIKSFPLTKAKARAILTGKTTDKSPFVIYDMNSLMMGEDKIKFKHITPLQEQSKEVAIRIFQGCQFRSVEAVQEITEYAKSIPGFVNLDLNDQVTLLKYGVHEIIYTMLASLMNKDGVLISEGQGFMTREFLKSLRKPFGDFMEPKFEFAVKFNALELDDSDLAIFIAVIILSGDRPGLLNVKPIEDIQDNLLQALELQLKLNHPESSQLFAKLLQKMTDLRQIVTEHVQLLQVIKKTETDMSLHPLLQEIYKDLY
Nature of the assay: PPAR-γ reporter assay (GAL4 luciferase, CV-1 cells). The class given is cell-based. Particulars: induction ratio of luciferase activity at 25 μM, activity without tested compound = 1, hGR-GAL4-hPPAR-γ. As to the method: The reporter assay of PPAR-γ was conducted by using the following plasmids in accordance with the known report (Steven A. Kliwer et al., The Journal of Biological Chemistry Vol. 270, No. 22: 12953-12956, 1995).
As luciferase expressing plasmid, used was the plasmid which introduces the sequence wherein 5 yeast GAL4 binding sequences, UAS, are tandemly connected to the upstream of the thymidine kinase promoter of pTAL-Luc (#6252-1, produced by Clontech) (UAS×5-TK-Luc) (1).
As PPAR-γ receptor expressing plasmid, used was the plasmid which introduces the N-terminal domain of human GR (1-76aa), the yeast GAL4 DNA binding domain (1-147aa) and PPAR-γ2 ligand binding domain (204-505aa) to NotI site and SalI site of pExchange-1 core vector (#211176, produced by Stratagene) (hGR-GAL4-hPPAR-γ) (2). The plasmid mixed solution used in the reporter assay of PPAR-γ contains above (1), (2) and plasmid pcDNA3.1(−) as a carrier in the weight ratio of 4:1:3.
(§1) CV-1 cells were seeded on the 384-well white plate (781080, produced by Greiner) to become 1.5×10^4 cells/30 μL per one well. Then, gene transfer was conducted in accordance with the manual by using OPTI-MEM I (11058-021, produced by GIBCO), FuGENE6 (1-815-075, produced by Roche) and the above PPAR-γ plasmid mixed solution. The incubation was conducted in a carbon-dioxide incubator at 37° C. for 6 to 8 hours. Then, a diluted tested compound was added thereto and incubated in a carbon-dioxide incubator at 37° C. for 16 to 18 hours. Britelite (6016979, produced by PerkinElmer) was further added thereto and stirred, and the luciferase activity was measured with EnVision (produced by PerkinElmer).
(§2) Specifying the luciferase activity without addition of a tested compound as 1, the induction ratio of the luciferase activity by each tested compound was calculated.
Background: A reporter such as luciferase makes a cellular process visible.

In a further assay the target is T2, PPAR-α (Homo sapiens, UniProt Q07869).
T2 construct: expressed in transfected cells; host or cells: CV-1 (African green monkey kidney)
T2 sequence (Q07869 167-468): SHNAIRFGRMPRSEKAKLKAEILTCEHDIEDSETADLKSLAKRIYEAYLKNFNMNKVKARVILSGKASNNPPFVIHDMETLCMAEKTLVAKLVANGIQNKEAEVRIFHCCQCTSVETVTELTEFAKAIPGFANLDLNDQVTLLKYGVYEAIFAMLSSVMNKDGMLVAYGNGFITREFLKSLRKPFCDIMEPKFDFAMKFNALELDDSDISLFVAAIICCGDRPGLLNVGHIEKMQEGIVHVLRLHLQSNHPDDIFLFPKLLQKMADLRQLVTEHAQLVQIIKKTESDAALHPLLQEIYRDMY
Nature of the assay: PPAR-α reporter assay (GAL4 luciferase, CV-1 cells). Particulars: induction ratio of luciferase activity at 50 μM, activity without tested compound = 1, hGR-GAL4-hPPAR-α. The format is cell-based. As to the method: The reporter assay of PPAR (peroxisome proliferator-activated receptor)-α was conducted by using the following plasmids in accordance with the known report (Steven A. Kliwer et al., The Journal of Biological Chemistry Vol. 270, No. 22: 12953-12956, 1995).
As luciferase expressing plasmid, used was the plasmid which introduces the sequence wherein 5 yeast GAL4 binding sequences, UAS (upstream activating sequence), are tandemly connected to the upstream of the thymidine kinase promoter of pTAL-Luc (#6252-1, produced by Clontech) (UAS×5-TK-Luc) (1).
As PPAR-α receptor expressing plasmid, used was the plasmid which introduces the N-terminal domain of human GR (1-76aa), the yeast GAL4 DNA binding domain (1-147aa) and PPAR-α ligand binding domain (167-468aa) to NotI site and SalI site of pExchange-1 core vector (#211176, produced by Stratagene) (hGR-GAL4-hPPAR-α) (2). The plasmid mixed solution used in the reporter assay of PPAR-α contains above (1), (2) and plasmid pcDNA3.1(−) as a carrier in the weight ratio of 4:1:3.
The medium having the following composition was used for seeding cell line CV-1 used in the reporter assay, derived from the kidney of an African green monkey, on the plate; and for diluting the tested compounds. Used was Dulbecco modified Eagle medium (D2902 without phenol red, produced by SIGMA) to which 3.7 g/L of NaHCO3, 3.5 g/L of D-glucose and 10% v/v fetal bovine serum were added.
as §1, with “PPAR-α” for “PPAR-γ”
as §2

Structures are written as SMILES.

Here are results for 35 molecules from US7728158B2, “PPAR activity regulators” (Ajinomoto Co., Inc., priority 2006, dated 2010).

Turning to `CCCCCCCCCCCC(=O)NC(C)C(=O)O` (racemic) [Example 13], at PPAR-γ, the PPAR-γ induction ratio came to 15.4. In addition, the PPAR-α induction ratio at PPAR-α came out at 25.0.

As to `CCCCCCCCCCCC(=O)NC(C)(CC)C(=O)O` (racemic) [Example 16], at PPAR-γ, the PPAR-γ induction ratio is recorded as 18.5. In addition, the PPAR-α induction ratio on PPAR-α was 23.0.

Regarding `CCCCCCCCCCCC(=O)NC(C)(C(=O)O)C(C)C` (racemic) [Example 18], the PPAR-γ induction ratio at PPAR-γ came out at 24.0. In addition, the PPAR-α induction ratio at PPAR-α amounted to 39.0.

Take `CCCCCCCCCCCC(=O)NC(C(N)=O)C(C)C` (racemic) [Example 21]: on PPAR-γ, the PPAR-γ induction ratio is recorded as 19.2. Also, the PPAR-α induction ratio on PPAR-α stood at 45.0.

Take `CCCCCCCCCCCCNC(=O)C(NC(=O)CCCCCCCCCCC)C(C)C` (racemic) [Example 22]: the PPAR-γ induction ratio on PPAR-γ was 16.6. Moreover, the PPAR-α induction ratio on PPAR-α amounted to 44.0.

Turning to `CCCCCCCCCCCC(=O)N[C@H](C(=O)NC1CCCCC1)C(C)C` (racemic) [Example 23, N-lauroyl-L-valine cyclohexylamide], the PPAR-γ induction ratio on PPAR-γ came to 21.3. In addition, at PPAR-α, the PPAR-α induction ratio was 63.0.

Take `CCCCCCCCCCCC(=O)NC(C(=O)O)C(C(F)(F)F)C(F)(F)F` (racemic) [Example 34]: on PPAR-γ, the PPAR-γ induction ratio was determined as 2.7. Also, at PPAR-α, the PPAR-α induction ratio turned out to be 2.3.

Regarding `CCCCCCCCCCCC(=O)NC(Cc1ccccc1C)C(=O)O` (racemic) [Example 38], the PPAR-γ induction ratio on PPAR-γ came out at 3.2. The PPAR-α induction ratio on PPAR-α is recorded as 2.8.

In the case of `CCCCCCCCCCCC(=O)NC(C)(Cc1ccccc1)C(=O)O` (racemic) [Example 41], the PPAR-γ induction ratio at PPAR-γ came to 5.1. The PPAR-α induction ratio on PPAR-α came to 7.3.

Consider `CCCCCCCC(=O)N[C@H](C(=O)O)C(C)C` [Example 1], for which the PPAR-γ induction ratio on PPAR-γ is on record as 11.9. Moreover, at PPAR-α, the PPAR-α induction ratio is reported as 1.5.

For `CCCCCCCCC(=O)N[C@H](C(=O)O)[C@@H](C)CC` [Example 2], the PPAR-γ induction ratio on PPAR-γ was found to be 12.5. The PPAR-α induction ratio at PPAR-α is on record as 2.1.

For the molecule `CCCCCCCCC(=O)N[C@@H](CC(C)C)C(=O)O` [Example 3], the PPAR-γ induction ratio at PPAR-γ is 6.1. For the same molecule, the PPAR-α induction ratio at PPAR-α worked out at 0.9.

Regarding `CCCCCCCCC(=O)N[C@H](C(=O)O)C(C)C` [Example 4], on PPAR-γ, the PPAR-γ induction ratio is recorded as 12.9. In addition, on PPAR-α, the PPAR-α induction ratio came out at 3.1.

With `CCCCCCCCCC(=O)N[C@H](C(=O)O)[C@@H](C)CC` [Example 5], the PPAR-γ induction ratio on PPAR-γ is given as 15.9. The PPAR-α induction ratio at PPAR-α came to 3.5.

Turning to `CCCCCCCCCC(=O)N[C@@H](CC(C)C)C(=O)O` [Example 6], at PPAR-γ, the PPAR-γ induction ratio was 9.5. For the same molecule, at PPAR-α, the PPAR-α induction ratio amounted to 1.3.

With `C=CCCCCCCCCC(=O)N[C@@H](CC(C)C)C(=O)O` [Example 7], the PPAR-γ induction ratio on PPAR-γ amounted to 11.5. The PPAR-α induction ratio on PPAR-α turned out to be 2.7.

On to `C=CCCCCCCCCC(=O)N[C@@H](Cc1ccccc1)C(=O)O` [Example 8], for which, on PPAR-γ, the PPAR-γ induction ratio came out at 4.4. The PPAR-α induction ratio on PPAR-α is given as 1.3.

Consider `CCCCCCCCCC(=O)N[C@H](C(=O)O)C(C)C` [Example 9], for which the PPAR-γ induction ratio on PPAR-γ is given as 25.4. In addition, the PPAR-α induction ratio at PPAR-α is 19.0.

For `C=CCCCCCCCCC(=O)N[C@H](C(=O)O)C(C)C` [Example 10], the PPAR-γ induction ratio at PPAR-γ came out at 15.3. Moreover, on PPAR-α, the PPAR-α induction ratio is recorded as 23.0.

With `CCCCCCCCCCC(=O)N[C@@H](CC(C)C)C(=O)O` [Example 11], the PPAR-γ induction ratio on PPAR-γ was 11.6. In addition, the PPAR-α induction ratio at PPAR-α worked out at 3.0.

With `CCCCCCCCCCC(=O)N[C@@H](Cc1ccccc1)C(=O)O` [Example 12], the PPAR-γ induction ratio on PPAR-γ worked out at 4.2. Moreover, at PPAR-α, the PPAR-α induction ratio came to 1.4.

Consider `CCCCCCCCCCCC(=O)N[C@H](C(=O)O)[C@@H](C)CC` [Example 14], for which the PPAR-γ induction ratio at PPAR-γ was determined as 20.5. The PPAR-α induction ratio at PPAR-α was determined as 51.0.

With `CCCCCCCCCCCC(=O)N[C@@H](CC(C)C)C(=O)O` [Example 15], the PPAR-γ induction ratio at PPAR-γ was 9.7. Moreover, on PPAR-α, the PPAR-α induction ratio turned out to be 11.0.

Turning to `CCCCCCCCCCCC(=O)NC(C)(C)C(=O)O` [Example 17], the PPAR-γ induction ratio on PPAR-γ stood at 20.3. In addition, the PPAR-α induction ratio on PPAR-α was 32.0.

`CCCCCCCCCCCC(=O)N[C@@H](CCSC)C(=O)O` [Example 19]: the PPAR-γ induction ratio on PPAR-γ stood at 20.9. Besides, at PPAR-α, the PPAR-α induction ratio was determined as 24.0.

Turning to `CCCCCCCCCCCC(=O)N[C@H](C(=O)O)C(C)C` [Example 20, N-lauroyl-L-valine], the PPAR-γ induction ratio on PPAR-γ came out at 19.1. Further, the PPAR-α induction ratio at PPAR-α was 52.0.

As to `CCCCCCCCCCCC(=O)N(CC)[C@H](C(=O)O)C(C)C` [Example 24], at PPAR-γ, the PPAR-γ induction ratio was 16.4. For the same molecule, at PPAR-α, the PPAR-α induction ratio is reported as 46.0.

`CCCCCCCCCCCCCC(=O)N[C@H](C(=O)O)[C@@H](C)CC` [Example 25]: on PPAR-γ, the PPAR-γ induction ratio turned out to be 27.4. On PPAR-α, the PPAR-α induction ratio turned out to be 50.0.

For the molecule `CCCCCCCCCCCCCC(=O)N[C@@H](CC(C)C)C(=O)O` [Example 26], at PPAR-γ, the PPAR-γ induction ratio stood at 21.0. The PPAR-α induction ratio on PPAR-α stood at 33.0.

As to `CCCCCCCCCCCCCCCC(=O)N[C@@H](CC(C)C)C(=O)O` [Example 27], the PPAR-γ induction ratio on PPAR-γ is reported as 11.7. Besides, the PPAR-α induction ratio on PPAR-α is 2.5.

Take `CCCCCCCCCCCCCCCC(=O)N[C@H](C(=O)O)C(C)C` [Example 28]: at PPAR-γ, the PPAR-γ induction ratio amounted to 17.1. Besides, the PPAR-α induction ratio on PPAR-α is recorded as 29.0.

As for `CCCCCCCCCCCCCCCCCC(=O)N[C@@H](CC(C)C)C(=O)O` [Example 29], the PPAR-γ induction ratio at PPAR-γ is given as 12.3. Further, at PPAR-α, the PPAR-α induction ratio was determined as 1.6.

Turning to `CCCCCCCCCCCCCCCCCC(=O)N[C@H](C(=O)O)C(C)C` [Example 30], the PPAR-γ induction ratio at PPAR-γ turned out to be 13.7. For the same molecule, the PPAR-α induction ratio on PPAR-α was 15.0.

For `CCCCCCCCCCCCCCCCCCCCCC(=O)N[C@H](C(=O)O)C(C)C` [Example 31], at PPAR-γ, the PPAR-γ induction ratio was 4.4. In addition, the PPAR-α induction ratio on PPAR-α is listed as 1.2.

`CCCCCCCCCC(=O)N[C@H](C(=O)O)C(C)(C)C` [Example 32]: on PPAR-γ, the PPAR-γ induction ratio stood at 15.2. Further, the PPAR-α induction ratio at PPAR-α amounted to 31.5.
